Data reported in patent US11701372B2, “Inhalation formulations of 1'-cyano substituted carba-nucleoside analogs” (priority 2020, dated 2023).
Several values for one entry are separate records, joined by “and”; a condition that tells them apart may be missing. Equal entries are not always repeated. Where two headings read alike, the source gives them in different places.

What was measured:
[1] = assay type: physicochemical
Description: For each condition, samples were staged at ambient and refrigerated conditions. Samples were analyzed for % assay/degs, appearance, reconstitution time, pH, and compared to T=0. The structures of the key impurities/metabolites are shown below.

[2] = In use testing of reconstituted solutions in IV bags and IV tubings; assay type: physicochemical
Source text: The IV bags and IV tubings were sampled over time and tested for % assay/degradation.

CCC(CC)COC(=O)[C@H](C)N[P@](=O)(OC[C@H]1O[C@@](C(N)=O)(c2ccc3c(N)ncnn23)[C@H](O)[C@@H]1O)Oc1ccccc1 [Compound G]
% assay/degs, difference from T = 0 ([1]; pH 1.8, 2-8° C., 2 h): 0.00% | % assay/degs, difference from T = 0 ([1]; pH 1.8, 2-8° C., 3 h): 0.00% | % assay/degs, difference from T = 0 ([1]; pH 1.8, 2-8° C., 8 h): 0.00% | % assay/degs, difference from T = 0 ([1]; pH 1.8, 2-8° C., 24 h): 0.00% | % assay/degs, difference from T = 0 ([1]; pH 1.8, 2-8° C., 48 h): 0.00% | % assay/degs, difference from T = 0 ([1]; pH 1.8, Ambient, 1 h): 0.00% | % assay/degs, difference from T = 0 ([1]; pH 1.8, Ambient, 2 h): 0.00% | % assay/degs, difference from T = 0 ([1]; pH 1.8, Ambient, 3 h): 0.00% | % assay/degs, difference from T = 0 ([1]; pH 1.8, Ambient, 8 h): 0.00% | % assay/degs, difference from T = 0 ([1]; pH 1.8, Ambient, 24 h): 0.00% | % assay/degs, difference from T = 0 ([1]; pH 1.8, Ambient, 48 h): 0.00% | % assay/degs ([1]; pH 1.8, T = 0): 0.05% | % assay/degs, difference from T = 0 ([1]; pH 2.0, 2-8° C., 2 h): 0.00% | % assay/degs, difference from T = 0 ([1]; pH 2.0, 2-8° C., 3 h): 0.00% | % assay/degs, difference from T = 0 ([1]; pH 2.0, 2-8° C., 8 h): 0.00% | % assay/degs, difference from T = 0 ([1]; pH 2.0, 2-8° C., 24 h): 0.00% | % assay/degs, difference from T = 0 ([1]; pH 2.0, 2-8° C., 48 h): 0.00% | % assay/degs, difference from T = 0 ([1]; pH 2.0, Ambient, 1 h): 0.00% | % assay/degs, difference from T = 0 ([1]; pH 2.0, Ambient, 2 h): 0.00% | % assay/degs, difference from T = 0 ([1]; pH 2.0, Ambient, 3 h): 0.00% | % assay/degs, difference from T = 0 ([1]; pH 2.0, Ambient, 8 h): 0.00% | % assay/degs, difference from T = 0 ([1]; pH 2.0, Ambient, 24 h): 0.00% | % assay/degs, difference from T = 0 ([1]; pH 2.0, Ambient, 48 h): 0.00% | % assay/degs ([1]; pH 2.0, T = 0): 0.05% | % assay/degs, difference from T = 0 ([1]; pH 3.5, 2-8° C., 2 h): 0.00% | % assay/degs, difference from T = 0 ([1]; pH 3.5, 2-8° C., 8 h): 0.00% | % assay/degs, difference from T = 0 ([1]; pH 3.5, 2-8° C., 24 h): 0.00% | % assay/degs, difference from T = 0 ([1]; pH 3.5, 2-8° C., 48 h): 0.00% | % assay/degs, difference from T = 0 ([1]; pH 3.5, 2-8° C., 72 h): 0.00% | % assay/degs, difference from T = 0 ([1]; pH 3.5, 2-8° C., 96 h): 0.00% | % assay/degs, difference from T = 0 ([1]; pH 3.5, 2-8° C., 168 h): 0.00% | % assay/degs, difference from T = 0 ([1]; pH 3.5, Ambient, 2 h): 0.00% | % assay/degs, difference from T = 0 ([1]; pH 3.5, Ambient, 8 h): 0.00% | % assay/degs, difference from T = 0 ([1]; pH 3.5, Ambient, 24 h): 0.00% | % assay/degs, difference from T = 0 ([1]; pH 3.5, Ambient, 48 h): 0.00% | % assay/degs, difference from T = 0 ([1]; pH 3.5, Ambient, 72 h): 0.00% | % assay/degs, difference from T = 0 ([1]; pH 3.5, Ambient, 96 h): 0.00% | % assay/degs, difference from T = 0 ([1]; pH 3.5, Ambient, 168 h): 0.00% | % assay/degs ([1]; pH 3.5, T = 0): 0.05% | % assay/degs, difference from T = 0 ([1]; pH 3.8, 2-8° C., 7.2 h): 0.00% | % assay/degs, difference from T = 0 ([1]; pH 3.8, 2-8° C., 24 h): 0.00% | % assay/degs, difference from T = 0 ([1]; pH 3.8, 2-8° C., 96 h): 0.00% | % assay/degs, difference from T = 0 ([1]; pH 3.8, 2-8° C., 168 h): 0.00% | % assay/degs, difference from T = 0 ([1]; pH 3.8, Ambient, 7.2 h): 0.00% | % assay/degs, difference from T = 0 ([1]; pH 3.8, Ambient, 24 h): 0.00% | % assay/degs, difference from T = 0 ([1]; pH 3.8, Ambient, 96 h): 0.00% | % assay/degs, difference from T = 0 ([1]; pH 3.8, Ambient, 168 h): 0.00% | % assay/degs ([1]; pH 3.8, T = 0): 0.05% | % assay/degs, difference from T = 0 ([1]; pH 4.0, 2-8° C., 7.2 h): 0.00% | % assay/degs, difference from T = 0 ([1]; pH 4.0, 2-8° C., 24 h): 0.00% | % assay/degs, difference from T = 0 ([1]; pH 4.0, 2-8° C., 96 h): 0.00% | % assay/degs, difference from T = 0 ([1]; pH 4.0, 2-8° C., 168 h): 0.00% | % assay/degs, difference from T = 0 ([1]; pH 4.0, Ambient, 7.2 h): 0.00% | % assay/degs, difference from T = 0 ([1]; pH 4.0, Ambient, 24 h): 0.00% | % assay/degs, difference from T = 0 ([1]; pH 4.0, Ambient, 96 h): 0.00% | % assay/degs, difference from T = 0 ([1]; pH 4.0, Ambient, 168 h): 0.00% | % assay/degs ([1]; pH 4.0, T = 0): 0.06% | % assay/degradation ([2]; 30 mg (IV Bag), 2-8° C. 24 h): 0.05 % w/w | % assay/degradation ([2]; 30 mg (IV Bag), 2-8° C. 48 h): 0.06 % w/w | % assay/degradation ([2]; 30 mg (IV Bag), Ambient 4 h): 0.06 % w/w | % assay/degradation ([2]; 30 mg (IV Bag), Ambient 8 h): 0.06 % w/w | % assay/degradation ([2]; 30 mg (IV Bag), Ambient 24 h): 0.06 % w/w | % assay/degradation ([2]; 30 mg (IV Bag), T = 0 (2-8° C. series)): 0.05 % w/w | % assay/degradation ([2]; 30 mg (IV Tube), Ambient 6 Hours): 0.06 % w/w | % assay/degradation ([2]; 30 mg in 100 mL 0.9% Saline (IV Bag), T = 0 (Ambient series)): 0.05 % w/w | % assay/degradation ([2]; 200 mg (IV Bag), 2-8° C. 24 h): 0.05 % w/w | % assay/degradation ([2]; 200 mg (IV Bag), 2-8° C. 48 h): 0.06 % w/w | % assay/degradation ([2]; 200 mg (IV Bag), Ambient 4 h): 0.06 % w/w | % assay/degradation ([2]; 200 mg (IV Bag), Ambient 8 h): 0.06 % w/w | % assay/degradation ([2]; 200 mg (IV Bag), Ambient 24 h): 0.06 % w/w | % assay/degradation ([2]; 200 mg (IV Bag), T = 0 (2-8° C. series)): 0.05 % w/w | % assay/degradation ([2]; 200 mg (IV Tube), Ambient 6 h): 0.05 % w/w | % assay/degradation ([2]; 200 mg in 100 mL 0.9% Saline (IV Bag), T = 0 (Ambient series)): 0.05 % w/w

Oc1ccccc1 [Phenol]
% assay/degs ([1]; pH 1.8): 0.00% | % assay/degs, difference from T = 0 ([1]; pH 1.8): 0.00% and 0.04% and 0.08% | % assay/degs ([1]; pH 2): 0.00% | % assay/degs, difference from T = 0 ([1]; pH 2): 0.00% and 0.04% and 0.05% | % assay/degs ([1]; pH 3.5): 0.00% | % assay/degs, difference from T = 0 ([1]; pH 3.5): 0.00% | % assay/degradation [2]: 0.00 % w/w
